Results on 12 compounds are retold here after patent US7135572B2 (CJ Corp, priority 2001, dated 2006).

One assay concerns the target T1, cyclooxygenase-1 (Homo sapiens, UniProt P23219).
T1 construct: The cultured U-937 (humane lymphoma cell, obtained from Korean cell line bank) was centrifuged to collect the pellet; endogenous in cells; host or cells: U-937 (human lymphoma cell line, Korean cell line bank)
In words: Inhibition of cyclooxygenase-1 in U-937 cells (PGE2 quantitation). Format: cell-based. The following applies: for Inhibitory effects of cyclooxygenase (COX): COX-1: U-937 cells. How it is done:
(§1) In order to investigate pharmacologically the selective inhibition activity against cyclooxygenase-2 enzyme, the inhibitive effects against cyclooxygenase-1 and cyclooxygenase-2 were measured by two methods as follows.
Then, the pellet was diluted with 1×HBSS(Hank's balanced salt solutin) at the concentration of 1×10^6 cells/ml, and 1 ml of them was transferred into each well of 12-well plates, and then dissolved with DMSO. 5μl of the diluted sample solution, and 5μl of DMSO vehicle were added therein and mixed, and the mixture was cultured at 37° C. in Co2 incubator for 15 minutes. Arachidonic acid as a substrate was dissolved in ethanol to prepare a stock solution with a concentration of 10 mM, followed by diluting with 1×HBSS to prepare the solution of 1 mM. 10 μl of 1 mM Arachidonic acid solution was added to each of the treated wells, and the mixture was cultured at 37° C. in CO2 incubator for 30 minutes. The cell solution of each well was collected in the centrifuge tube and was centrifuged at 4° C. for 5 minutes at 10,000 rpm. As PGE2 existed in the supernatant separated from collected cell, the concentration of PGE2 was quantitated by using monoclonal kit from Cayman Chemicals, and the concentration of samples and vehicle were compared to estimate the inhibition ratio (%) of each compound against cyclooxygenase-1. Ultimately, the inhibition effect against the cyclooxygenase-1 enzyme was obtained from the result.

Another assay addresses T2, cyclooxygenase-2 (Mus musculus, UniProt Q05769).
T2 construct: endogenous in cells; host or cells: Raw 264.7 (Korean cell line bank), aspirin-pretreated, induced with interferon gamma and LPS
T2 sequence (Q05769 18-604): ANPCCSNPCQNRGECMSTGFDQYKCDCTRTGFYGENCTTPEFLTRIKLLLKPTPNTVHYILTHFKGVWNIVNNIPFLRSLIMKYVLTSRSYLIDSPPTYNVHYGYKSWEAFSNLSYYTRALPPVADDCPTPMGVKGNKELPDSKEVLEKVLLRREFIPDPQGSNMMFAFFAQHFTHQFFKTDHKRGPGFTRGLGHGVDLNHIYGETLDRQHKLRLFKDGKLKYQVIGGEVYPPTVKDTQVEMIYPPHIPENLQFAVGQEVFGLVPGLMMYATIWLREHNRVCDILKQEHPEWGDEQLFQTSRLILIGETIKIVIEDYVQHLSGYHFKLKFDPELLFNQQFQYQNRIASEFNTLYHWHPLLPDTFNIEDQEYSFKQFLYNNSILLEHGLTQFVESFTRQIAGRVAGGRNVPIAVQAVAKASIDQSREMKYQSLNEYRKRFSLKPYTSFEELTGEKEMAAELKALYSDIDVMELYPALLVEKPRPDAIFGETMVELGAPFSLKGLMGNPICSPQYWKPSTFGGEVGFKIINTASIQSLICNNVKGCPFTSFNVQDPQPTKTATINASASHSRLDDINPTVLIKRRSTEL
Put plainly: Inhibition of cyclooxygenase-2 in Raw 264.7 cells treated with interferon γ and LPS (PGE2 EIA). The assay is classed as cell-based. The conditions noted are these: for Inhibitory effects of cyclooxygenase (COX): COX-2: Raw 264.7 cells. How it is done:
as §1
And then, each samples were replaced with new media and cultured for 30 minutes. In addition, the samples was treated with 100 units/ml of interferon Υ and 100 ng/ml of lipopolysaccharide(LPS), and cultured for 18 hours. Then, the media was transferred to other tubes and the PGE 2 was quantitated by using EIA kit from Cayman Chemicals.

T1 sequence (P23219 24-599): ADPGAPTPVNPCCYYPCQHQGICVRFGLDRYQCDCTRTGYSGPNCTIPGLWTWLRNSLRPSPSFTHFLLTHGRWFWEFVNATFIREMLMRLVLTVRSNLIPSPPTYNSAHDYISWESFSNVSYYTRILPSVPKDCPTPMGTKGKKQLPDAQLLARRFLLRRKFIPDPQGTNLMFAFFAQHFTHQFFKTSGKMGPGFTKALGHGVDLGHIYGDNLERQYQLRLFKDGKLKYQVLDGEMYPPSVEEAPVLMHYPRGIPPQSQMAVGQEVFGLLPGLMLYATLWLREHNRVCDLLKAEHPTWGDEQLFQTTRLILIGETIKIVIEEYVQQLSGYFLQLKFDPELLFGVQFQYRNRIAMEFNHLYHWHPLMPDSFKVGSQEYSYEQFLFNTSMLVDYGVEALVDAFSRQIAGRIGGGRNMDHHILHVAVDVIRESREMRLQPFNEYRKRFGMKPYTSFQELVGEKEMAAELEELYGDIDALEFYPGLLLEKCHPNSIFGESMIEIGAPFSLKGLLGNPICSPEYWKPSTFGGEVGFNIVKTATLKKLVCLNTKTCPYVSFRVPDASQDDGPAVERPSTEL

With `COc1cc(OC)cc(-c2nc(C)nn2-c2ccc(S(N)(=O)=O)cc2)c1` [Example 13, 4-[5-(3,5-dimethoxy-phenyl)-3-methyl-[1,2,4]triazole-1-yl]-benzenesulfonamide], the “Inhibitory effects of cyclooxygenase (COX): COX-1” value (from here on “Inhibitory effects … COX-1”) at cyclooxygenase-1 (3 μM) stood at 63.8 % inhibition; on cyclooxygenase-1 (10 μM), 65.9 % inhibition; at cyclooxygenase-1 (30 μM), 76.8 % inhibition. For the same compound, the “Inhibitory effects of cyclooxygenase (COX): COX-2” value (“Inhibitory effects … COX-2” for short) on cyclooxygenase-2 (30 nM) was 37.9 % inhibition; at cyclooxygenase-2 (100 nM) it was 56.1 % inhibition; at cyclooxygenase-2 (300 nM), 59.3 % inhibition.
Regarding `Cc1nc(-c2ccccc2)n(-c2ccc(S(N)(=O)=O)cn2)n1` [Example 14, 6-(3-methyl-5-phenyl-[1,2,4]triazole-1-yl)-pyridine-3-sulfonic acid amide], the “Inhibitory effects … COX-1” value at cyclooxygenase-1 (3 μM) turned out to be 12.8 % inhibition; at cyclooxygenase-1 (10 μM), 20.4 % inhibition; at cyclooxygenase-1 (30 μM), 28.9 % inhibition. For the same compound, the “inhibition effect against cyclooxygenase-1 compared with Celecoxib (in words)” value at cyclooxygenase-1 (same condition as Celecoxib) is “much lower level”. Also, the “Inhibitory effects … COX-2” value is on record as 72.1 % inhibition on cyclooxygenase-2 (30 nM), 99.8 % inhibition on cyclooxygenase-2 (100 nM) and 99.9 % inhibition on cyclooxygenase-2 (300 nM). Besides, the “selectivity of cyclooxygenase-2 compared with the comparative substance (in words)” value on cyclooxygenase-2 (COX-2 versus COX-1) was “better than any other substances”. In addition, at cyclooxygenase-2 (low concentration, same condition as Celecoxib), the “inhibition effect against cyclooxygenase-2 compared with Celecoxib (in words)” value is “more excellent”.
Turning to `Cc1nc(-c2ccc(F)cc2)n(-c2ccc(S(N)(=O)=O)cn2)n1` [Example 15, 6-[5-(4-fluoro-phenyl)-3-methyl-[1,2,4]triazole-1-yl]-pyridine-3-sulfonic acid amide], the “Inhibitory effects … COX-1” value on cyclooxygenase-1 (3 μM) came out at 35.7 % inhibition; at cyclooxygenase-1 (10 μM), 41.0 % inhibition; at cyclooxygenase-1 (30 μM) it was 46.9 % inhibition. The figures for the “Inhibitory effects … COX-2” value on cyclooxygenase-2 (30 nM), at cyclooxygenase-2 (100 nM) and at cyclooxygenase-2 (300 nM) were 27.1 % inhibition, 28.8 % inhibition and 38.9 % inhibition, respectively.
On to `Cc1nc(-c2ccc(Cl)cc2)n(-c2ccc(S(N)(=O)=O)cn2)n1` [Example 16, 6-[5-(4-chloro-phenyl)-3-methyl-[1,2,4]triazole-1-yl]-pyridine-3-sulfonic acid amide], for which the “Inhibitory effects … COX-1” value at cyclooxygenase-1 (3 μM) is reported as 24.5 % inhibition; at cyclooxygenase-1 (10 μM), 43.2 % inhibition; at cyclooxygenase-1 (30 μM), 55.1 % inhibition. The results for the “Inhibitory effects … COX-2” value at cyclooxygenase-2 (30 nM), at cyclooxygenase-2 (100 nM) and at cyclooxygenase-2 (300 nM) were 32.4 % inhibition, 34.1 % inhibition and 85.2 % inhibition, respectively.
Turning to `Cc1nc(-c2ccc(Br)cc2)n(-c2ccc(S(N)(=O)=O)cn2)n1` [Example 17, 6-[5-(4-bromo-phenyl)-3-methyl-[1,2,4]triazole-1-yl]-pyridine-3-sulfonic acid amide], the results for the “Inhibitory effects … COX-1” value at cyclooxygenase-1 (3 μM), on cyclooxygenase-1 (10 μM) and at cyclooxygenase-1 (30 μM) were 5.6 % inhibition, 28.7 % inhibition and 32.7 % inhibition, respectively. The “Inhibitory effects … COX-2” value on cyclooxygenase-2 (30 nM) was determined as 47.8 % inhibition; on cyclooxygenase-2 (100 nM), 66.9 % inhibition; at cyclooxygenase-2 (300 nM), 78.2 % inhibition.
As to `Cc1ccc(-c2nc(C)nn2-c2ccc(S(N)(=O)=O)cn2)cc1` [Example 18, 6-(3-methyl-5-p-toly-[1,2,4]triazole-1-yl)-pyridine-3-sulfonic acid amide], the “Inhibitory effects … COX-1” value on cyclooxygenase-1 (3 μM) is listed as 50.4 % inhibition; at cyclooxygenase-1 (10 μM), 62.9 % inhibition; at cyclooxygenase-1 (30 μM), 75.1 % inhibition. Moreover, the “Inhibitory effects … COX-2” value came to 26.4 % inhibition on cyclooxygenase-2 (30 nM), 37.5 % inhibition at cyclooxygenase-2 (100 nM) and 46.5 % inhibition at cyclooxygenase-2 (300 nM).
On to `COc1ccc(-c2nc(C)nn2-c2ccc(S(N)(=O)=O)cn2)cc1` [Example 19, 6-[5-(4-methoxy-phenyl)-3-mehtyl-[1,2,4]triazole-1-yl]-pyridine-3-sulfonic acid amide], for which the entries for the “Inhibitory effects … COX-1” value on cyclooxygenase-1 (3 μM), on cyclooxygenase-1 (10 μM) and at cyclooxygenase-1 (30 μM) were 46.9 % inhibition, 61.0 % inhibition and 77.6 % inhibition, respectively. For the same compound, the “Inhibitory effects … COX-2” value on cyclooxygenase-2 (30 nM) was 34.8 % inhibition; at cyclooxygenase-2 (100 nM), 43.1 % inhibition; on cyclooxygenase-2 (300 nM) it was 69.5 % inhibition.
As to `Cc1nc(-c2cccc(F)c2)n(-c2ccc(S(N)(=O)=O)cn2)n1` [Example 20, 6-[5-(3-fluoro-phenyl)-3-mehtyl-[1,2,4]triazole-1-yl]-pyridine-3-sulfonic acid amide], the entries for the “Inhibitory effects … COX-1” value at cyclooxygenase-1 (3 μM), on cyclooxygenase-1 (10 μM) and at cyclooxygenase-1 (30 μM) were 27.2 % inhibition, 31.6 % inhibition and 34.7 % inhibition, respectively. The results for the “Inhibitory effects … COX-2” value on cyclooxygenase-2 (30 nM), at cyclooxygenase-2 (100 nM) and at cyclooxygenase-2 (300 nM) were 30.2 % inhibition, 57.8 % inhibition and 74.0 % inhibition, respectively.
Turning to `Cc1nc(-c2cccc(Cl)c2)n(-c2ccc(S(N)(=O)=O)cn2)n1` [Example 21, 6-[5-(3-chloro-phenyl)-3-methyl-[1,2,4]triazole-1-yl]-pyridine-3-sulfonic acid amide], the “Inhibitory effects … COX-1” value turned out to be 44.7 % inhibition at cyclooxygenase-1 (3 μM), 56.7 % inhibition at cyclooxygenase-1 (10 μM) and 75.6 % inhibition at cyclooxygenase-1 (30 μM). For the same compound, the figures for the “Inhibitory effects … COX-2” value at cyclooxygenase-2 (30 nM), at cyclooxygenase-2 (100 nM) and at cyclooxygenase-2 (300 nM) were 43.9 % inhibition, 48.8 % inhibition and 67.8 % inhibition, respectively.
As to `COc1cc(OC)cc(-c2nc(C)nn2-c2ccc(S(N)(=O)=O)cn2)c1` [Example 22, 6-[5-(3,5-dimethoxy-phenyl)-3-methyl-[1,2,4]triazole-1-yl]-pyridine-3-sulfonic acid amide], the results for the “Inhibitory effects … COX-1” value at cyclooxygenase-1 (3 μM), on cyclooxygenase-1 (10 μM) and on cyclooxygenase-1 (30 μM) were 15.1 % inhibition, 26.8 % inhibition and 31.1 % inhibition, respectively. In addition, the “Inhibitory effects … COX-2” value on cyclooxygenase-2 (30 nM) was 27.3 % inhibition; at cyclooxygenase-2 (100 nM), 29.8 % inhibition; at cyclooxygenase-2 (300 nM), 36.2 % inhibition.
Consider `Cc1nc(-c2ccccc2)n(-c2ccc(S(C)(=O)=O)cc2)n1` [Example 24, 1-(4-methanesulfony-phenyl)-3-methyl-5-phenyl-1H-[1,2,4]triazole], for which the entries for the “Inhibitory effects … COX-1” value at cyclooxygenase-1 (3 μM), at cyclooxygenase-1 (10 μM) and at cyclooxygenase-1 (30 μM) were 1.3 % inhibition, 40.8 % inhibition and 71.5 % inhibition, respectively. The “Inhibitory effects … COX-2” value came out at 29.7 % inhibition on cyclooxygenase-2 (30 nM), 38.0 % inhibition on cyclooxygenase-2 (100 nM) and 64.4 % inhibition at cyclooxygenase-2 (300 nM).
For `Cc1nc(-c2ccc(F)cc2)n(-c2ccc(S(C)(=O)=O)cc2)n1` [Example 26, 5-(4-fluoro-phenyl)-1-(4-methanesulfonyl-phenyl)-3-methyl-1H-[1,2,4]triazole], the “Inhibitory effects … COX-1” value on cyclooxygenase-1 (3 μM) was 42.0 % inhibition; on cyclooxygenase-1 (10 μM) it was 51.2 % inhibition; on cyclooxygenase-1 (30 μM) it was 55.1 % inhibition. Besides, the entries for the “Inhibitory effects … COX-2” value on cyclooxygenase-2 (30 nM), on cyclooxygenase-2 (100 nM) and on cyclooxygenase-2 (300 nM) were 20.1 % inhibition, 47.7 % inhibition and 64.0 % inhibition, respectively.
